Where two headings read alike, the source gives them in different places.
What was measured:
Assay type in all cases: in vivo
corn (Zea mays) = experiment: Test C pre/postemergence; settings: for Corn plant response rating (crop injury, 0 = no effect, 100 = complete kill) at 16 g/ha / Corn plant response rating (crop injury, 0 = no effect, 100 = complete kill) at 31 g/ha / Corn plant response rating (crop injury, 0 = no effect, 100 = complete kill) at 62 g/ha / Corn plant response rating (crop injury, 0 = no effect, 100 = complete kill) at 125 g/ha: Zea mays; for Corn plant response rating (crop injury, 0 = no effect, 100 = complete kill) at 16 g/ha: 16 g ai/ha; for Corn plant response rating (crop injury, 0 = no effect, 100 = complete kill) at 31 g/ha: 31 g ai/ha
From the text: (§1) Seeds or nutlets of plant species selected from bermudagrass (Cynodon dactylon), Surinam grass (Brachiaria decumbens), cocklebur (Xanthium strumarium), corn (Zea mays), crabgrass (Digitaria sanguinalis), woolly cupgrass (Eriochloa villosa), giant foxtail (Setaria faberii), goosegrass (Eleusine indica), johnsongrass (Sorghum halepense), kochia (Kochia scoparia), lambsquarters (Chenopodium album), morningglory (Ipomoea coccinea), eastern black nightshade (Solanum ptycanthum), yellow nutsedge (Cyperus esculentus), pigweed (Amaranthus retroflexus), common ragweed (Ambrosia elatior), soybean (Glycine max), common (oilseed) sunflower (Helianthus annuus), and velvetleaf (Abutilon theophrasti) were planted and treated preemergence with test chemicals formulated in a non-phytotoxic solvent mixture which included a surfactant.
(§2) At the same time, plants selected from these crop and weed species and also winter barley (Hordeum vulgare), blackgrass (Alopecurus myosuroides), canarygrass (Phalaris minor), chickweed (Stellaria media), downy brome (Bromus tectorum), green foxtail (Setaria viridis), Italian ryegrass (Lolium multiflorum), wheat (Triticum aestivum), wild oat (Avena fatua) and windgrass (Apera spica-venti) were treated with postemergence applications of some of the test chemicals formulated in the same manner. Plants ranged in height from 2 to 18 cm (1- to 4-leaf stage) for postemergence treatments. Plant species in the flooded paddy test consisted of rice (Oryza sativa), umbrella sedge (Cyperus difformis), duck salad (Heteranthera limosa) and barnyardgrass (Echinochloa crus-galli) grown to the 2-leaf stage for testing. Treated plants and controls were maintained in a greenhouse for 12 to 14 days, after which time all species were compared to controls and visually evaluated. Plant response ratings, summarized in Table C, are based on a scale of 0 to 100 where 0 is no effect and 100 is complete control. A dash (-) response means no test result.

[1] = test system: goosegrass (Eleusine indica); experiment: Test C pre/postemergence; settings: for pest or weed control at 16 g/ha / pest or weed control at 31 g/ha / pest or weed control at 62 g/ha / pest or weed control at 125 g/ha: Eleusine indica; for pest or weed control at 16 g/ha: 16 g ai/ha; for pest or weed control at 31 g/ha: 31 g ai/ha
From the text: as §1, §2

[2] = test system: lambsquarters (Chenopodium album); experiment: Test C pre/postemergence; settings: for pest or weed control at 16 g/ha / pest or weed control at 31 g/ha / pest or weed control at 62 g/ha / pest or weed control at 125 g/ha: Chenopodium album; for pest or weed control at 16 g/ha: 16 g ai/ha; for pest or weed control at 31 g/ha: 31 g ai/ha
From the text: as §1, §2

soybean (Glycine max) = experiment: Test C pre/postemergence; settings: for plant injury at 16 g/ha: 16 g ai/ha
From the text: as §1, §2

[3] = test system: chickweed (Stellaria media); experiment: Test C postemergence; settings: for Plant response rating, Chickweed: scale 0 to 100
From the text: as §1, §2

[4] = Postemergence, 62 g ai/ha, scale 0 to 100 (0 no effect, 100 complete control)
[5] = Postemergence, 125 g ai/ha, scale 0 to 100 (0 no effect, 100 complete control)
[6] = Postemergence, 250 g ai/ha, scale 0 to 100
[7] = Postemergence, 500 g ai/ha, scale 0 to 100
[8] = Preemergence, 62 g ai/ha, scale 0 to 100, 0 no effect, 100 complete control
[9] = Preemergence, 125 g ai/ha, scale 0 to 100
[10] = Preemergence, 250 g ai/ha, scale 0 to 100
[11] = Preemergence, 500 g ai/ha, scale 0 to 100
[12] = 62 g ai/ha, scale 0 to 100 (0 no effect, 100 complete control)
[13] = post-emergence, Postemergence, read-out: Plant response rating (scale of 0 to 100), Corn
[14] = pre-emergence, Preemergence, scale 0 to 100, 0 no effect, 100 complete control, read-out: Plant response rating, Corn
[15] = post-emergence, Postemergence, read-out: Plant response rating (scale of 0 to 100), Goosegrass
[16] = pre-emergence, Preemergence, scale 0 to 100, 0 no effect, 100 complete control, read-out: Plant response rating, Goosegrass
[17] = post-emergence, Postemergence, read-out: Plant response rating (scale of 0 to 100), Lambsquarters
[18] = pre-emergence, Preemergence, scale 0 to 100, 0 no effect, 100 complete control, read-out: Plant response rating, Lambsquarters

Structure (SMILES): COC(=O)CNc1nc(C2CC2)nc(C(=O)OC)c1Br [Compound 10]
- Corn plant response rating (corn (Zea mays); [4]): 0
- Corn plant response rating (corn (Zea mays); [5]): 0
- Plant response rating, Corn (corn (Zea mays); [6]): 0
- Plant response rating, Corn (corn (Zea mays); [7]): 0
- Plant response rating, Corn (corn (Zea mays); [8]): 0
- Plant response rating, Corn (corn (Zea mays); [9]): 0
- Plant response rating, Corn (corn (Zea mays); [10]): 0
- Plant response rating, Corn (corn (Zea mays); [11]): 0
- Goosegrass plant response rating [1, 4]: 0
- Goosegrass plant response rating [1, 5]: 0
- Plant response rating, Goosegrass [1, 6]: 0
- Plant response rating, Goosegrass [1, 7]: 0
- Plant response rating, Goosegrass [1, 8]: 0
- Plant response rating, Goosegrass [1, 9]: 0
- Plant response rating, Goosegrass [1, 10]: 0
- Plant response rating, Goosegrass [1, 11]: 0
- Lambsquarters plant response rating [2, 4]: 60
- Lambsquarters plant response rating [2, 5]: 80
- Plant response rating, Lambsquarters [2, 6]: 90
- Plant response rating, Lambsquarters [2, 7]: 100
- Plant response rating, Lambsquarters [2, 8]: 0
- Plant response rating, Lambsquarters [2, 9]: 50
- Plant response rating, Lambsquarters [2, 10]: 65
- Plant response rating, Lambsquarters [2, 11]: 95
- Soybean plant response rating (soybean (Glycine max); [4]): 70
- Soybean plant response rating (soybean (Glycine max); [5]): 80
- Plant response rating, Soybean (soybean (Glycine max); [6]): 90
- Plant response rating, Soybean (soybean (Glycine max); [7]): 100
- Plant response rating, Soybean (soybean (Glycine max); [8]): 0
- Chickweed plant response rating [3, 12]: 0
- Plant response rating, Chickweed ([3]; 125 g ai/ha): 0
- Plant response rating, Chickweed ([3]; 250 g ai/ha): 20
- Plant response rating, Chickweed ([3]; 500 g ai/ha): 70

Structure (SMILES): COC(=O)c1nc(C2CC2)nc(N)c1F [Compound 25]
- Corn plant response rating (crop injury, 0 = no effect, 100 = complete kill) at 16 g/ha (corn (Zea mays); [13]): 0%
- Corn plant response rating (crop injury, 0 = no effect, 100 = complete kill) at 31 g/ha (corn (Zea mays); [13]): 0%
- Corn plant response rating (crop injury, 0 = no effect, 100 = complete kill) at 62 g/ha (corn (Zea mays); post-emergence, Postemergence, 62 g ai/ha, scale 0 to 100 (0 no effect, 100 complete control), read-out: Corn plant response rating): 0%
- Corn plant response rating (crop injury, 0 = no effect, 100 = complete kill) at 125 g/ha (corn (Zea mays); post-emergence, Postemergence, 125 g ai/ha, scale 0 to 100 (0 no effect, 100 complete control), read-out: Corn plant response rating): 0%
- Corn plant response rating (crop injury, 0 = no effect, 100 = complete kill) at 16 g/ha (corn (Zea mays); [14]): 0%
- Corn plant response rating (crop injury, 0 = no effect, 100 = complete kill) at 31 g/ha (corn (Zea mays); [14]): 0%
- Corn plant response rating (crop injury, 0 = no effect, 100 = complete kill) at 62 g/ha (corn (Zea mays); pre-emergence, Preemergence, 62 g ai/ha, scale 0 to 100, 0 no effect, 100 complete control, read-out: Plant response rating, Corn): 0%
- Corn plant response rating (crop injury, 0 = no effect, 100 = complete kill) at 125 g/ha (corn (Zea mays); pre-emergence, Preemergence, 125 g ai/ha, scale 0 to 100, read-out: Plant response rating, Corn): 0%
- pest or weed control at 16 g/ha [1, 15]: 0%
- pest or weed control at 31 g/ha [1, 15]: 0%
- pest or weed control at 62 g/ha ([1]; post-emergence, Postemergence, 62 g ai/ha, scale 0 to 100 (0 no effect, 100 complete control), read-out: Goosegrass plant response rating): 0%
- pest or weed control at 125 g/ha ([1]; post-emergence, Postemergence, 125 g ai/ha, scale 0 to 100 (0 no effect, 100 complete control), read-out: Goosegrass plant response rating): 0%
- pest or weed control at 16 g/ha [1, 16]: 0%
- pest or weed control at 31 g/ha [1, 16]: 0%
- pest or weed control at 62 g/ha ([1]; pre-emergence, Preemergence, 62 g ai/ha, scale 0 to 100, 0 no effect, 100 complete control, read-out: Plant response rating, Goosegrass): 0%
- pest or weed control at 125 g/ha ([1]; pre-emergence, Preemergence, 125 g ai/ha, scale 0 to 100, read-out: Plant response rating, Goosegrass): 0%
- pest or weed control at 16 g/ha [2, 17]: 30%
- pest or weed control at 31 g/ha [2, 17]: 60%
- pest or weed control at 62 g/ha ([2]; post-emergence, Postemergence, 62 g ai/ha, scale 0 to 100 (0 no effect, 100 complete control), read-out: Lambsquarters plant response rating): 85%
- pest or weed control at 125 g/ha ([2]; post-emergence, Postemergence, 125 g ai/ha, scale 0 to 100 (0 no effect, 100 complete control), read-out: Lambsquarters plant response rating): 90%
- pest or weed control at 16 g/ha [2, 18]: 0%
- pest or weed control at 31 g/ha [2, 18]: 0%
- pest or weed control at 62 g/ha ([2]; pre-emergence, Preemergence, 62 g ai/ha, scale 0 to 100, 0 no effect, 100 complete control, read-out: Plant response rating, Lambsquarters): 30%
- pest or weed control at 125 g/ha ([2]; pre-emergence, Preemergence, 125 g ai/ha, scale 0 to 100, read-out: Plant response rating, Lambsquarters): 50%
- plant injury at 16 g/ha (soybean (Glycine max); Glycine max, post-emergence, Postemergence, read-out: Plant response rating (scale of 0 to 100), Soybean): 40%
- plant injury at 31 g/ha (soybean (Glycine max); Glycine max, post-emergence, Postemergence, 31 g ai/ha, read-out: Plant response rating (scale of 0 to 100), Soybean): 90%
- plant injury at 62 g/ha (soybean (Glycine max); Glycine max, post-emergence, Postemergence, 62 g ai/ha, scale 0 to 100 (0 no effect, 100 complete control), read-out: Soybean plant response rating): 90%
- plant injury at 125 g/ha (soybean (Glycine max); Glycine max, post-emergence, Postemergence, 125 g ai/ha, scale 0 to 100 (0 no effect, 100 complete control), read-out: Soybean plant response rating): 90%
- plant injury at 16 g/ha (soybean (Glycine max); Glycine max, pre-emergence, Preemergence, scale 0 to 100, 0 no effect, 100 complete control, read-out: Plant response rating, Soybean): 30%
- plant injury at 62 g/ha (soybean (Glycine max); Glycine max, pre-emergence, Preemergence, 62 g ai/ha, scale 0 to 100, 0 no effect, 100 complete control, read-out: Plant response rating, Soybean): 60%
- plant injury at 125 g/ha (soybean (Glycine max); Glycine max, pre-emergence, Preemergence, 125 g ai/ha, scale 0 to 100, read-out: Plant response rating, Soybean): 65%
- pest or weed control at 16 g/ha ([3]; Stellaria media, post-emergence, 16 g ai/ha, read-out: Plant response rating (scale of 0 to 100), Chickweed): 0%
- pest or weed control at 62 g/ha ([3]; Stellaria media, post-emergence, 62 g ai/ha, scale 0 to 100 (0 no effect, 100 complete control), read-out: Chickweed plant response rating): 40%
- pest or weed control at 125 g/ha ([3]; Stellaria media, post-emergence, 125 g ai/ha, scale 0 to 100 (0 no effect, 100 complete control), read-out: Chickweed plant response rating): 85%

Structure (SMILES): CCCOC(=O)c1nc(C2CC2)nc(N)c1Br [Compound 15]
- Corn plant response rating (corn (Zea mays); [4]): 15
- Corn plant response rating (corn (Zea mays); [5]): 15
- Plant response rating, Corn (corn (Zea mays); [6]): 55
- Plant response rating, Corn (corn (Zea mays); [7]): 75
- Plant response rating, Corn (corn (Zea mays); [8]): 0
- Plant response rating, Corn (corn (Zea mays); [9]): 15
- Plant response rating, Corn (corn (Zea mays); [10]): 45
- Plant response rating, Corn (corn (Zea mays); [11]): 60
- Goosegrass plant response rating [1, 4]: 0
- Goosegrass plant response rating [1, 5]: 0
- Plant response rating, Goosegrass [1, 6]: 40
- Plant response rating, Goosegrass [1, 7]: 55
- Plant response rating, Goosegrass [1, 8]: 0
- Plant response rating, Goosegrass [1, 9]: 0
- Plant response rating, Goosegrass [1, 10]: 0
- Plant response rating, Goosegrass [1, 11]: 0
- Lambsquarters plant response rating [2, 4]: 100
- Lambsquarters plant response rating [2, 5]: 100
- Plant response rating, Lambsquarters [2, 6]: 100
- Plant response rating, Lambsquarters [2, 7]: 100
- Plant response rating, Lambsquarters [2, 8]: 95
- Plant response rating, Lambsquarters [2, 9]: 100
- Plant response rating, Lambsquarters [2, 10]: 100
- Plant response rating, Lambsquarters [2, 11]: 100
- Soybean plant response rating (soybean (Glycine max); [4]): 95
- Soybean plant response rating (soybean (Glycine max); [5]): 95
- Plant response rating, Soybean (soybean (Glycine max); [6]): 95
- Plant response rating, Soybean (soybean (Glycine max); [7]): 100
- Plant response rating, Soybean (soybean (Glycine max); [8]): 75
- Plant response rating, Soybean (soybean (Glycine max); [9]): 90
- Plant response rating, Soybean (soybean (Glycine max); [10]): 95
- Plant response rating, Soybean (soybean (Glycine max); [11]): 100
- Chickweed plant response rating [3, 12]: 20
- Plant response rating, Chickweed ([3]; 125 g ai/ha): 50
- Plant response rating, Chickweed ([3]; 250 g ai/ha): 65
- Plant response rating, Chickweed ([3]; 500 g ai/ha): 85

Reference: patent US8802597B2, “Herbicidal pyrimidines” (E I du Pont de Nemours and Company, priority 2003, dated 2014)
